Measurements taken from US11076597B2, “High stress resistant plant growth regulator and preparation method and use thereof” (SHANGHAI INSTITUTES FOR BIOLOGICAL SCIENCES, CHINESE …, priority 2015, dated 2021).
Entries after “also recorded” stand apart in the source; their conditions may differ.

Experiments:
[1] = molecular target: T1, PYR1 receptor-HAB1 protein phosphatase complex (Arabidopsis thaliana, UniProt O49686); assay: AlphaScreen assay, PYR1 receptor binding to HAB1; assay type: biochemical; details: fraction of the EC50 of ABA; FIG. 2a, 2h
T1 construct: made in house; host or cells: E. coli BL21 (DE3)
T1 sequence (O49686 1-191): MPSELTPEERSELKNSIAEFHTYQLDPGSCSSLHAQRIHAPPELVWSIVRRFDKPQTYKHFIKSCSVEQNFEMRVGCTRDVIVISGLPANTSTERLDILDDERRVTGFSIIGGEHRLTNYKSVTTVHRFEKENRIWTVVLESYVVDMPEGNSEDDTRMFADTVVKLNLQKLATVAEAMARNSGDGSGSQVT
T1 sequence (Q9CAJ0 172-511 partner limits assumed): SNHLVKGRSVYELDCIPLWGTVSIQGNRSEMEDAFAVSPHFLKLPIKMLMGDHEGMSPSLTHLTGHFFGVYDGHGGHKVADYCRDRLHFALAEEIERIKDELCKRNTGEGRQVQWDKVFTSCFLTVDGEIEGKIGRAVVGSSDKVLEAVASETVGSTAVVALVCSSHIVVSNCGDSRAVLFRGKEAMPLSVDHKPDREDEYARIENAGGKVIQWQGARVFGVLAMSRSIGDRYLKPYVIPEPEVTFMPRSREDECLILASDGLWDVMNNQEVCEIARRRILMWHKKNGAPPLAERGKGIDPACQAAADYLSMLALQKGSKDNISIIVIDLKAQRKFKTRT
Protocol: The AlphaScreen kit (available from Perkin Elmer) was used, and the method was as follows: a 10× buffer (50 mM MOPS, pH 7.4, 50 mM NaF, 50 mM CHAPS, 0.1 mg/ml bovine serum albumin) diluted at 1:10, each of 100 nM HAB1 with Biotin tag sequence and PYR1/PYL1/PYL2/PYL7/GmPYL6/OsPYL2 protein with dual tags of 6×His and SUMO sequences, corresponding concentrations of (+)-ABA/0224/0304/0706/0708/0713/0715/0428/NC0F4, and 5 μg/ml donor beads and acceptor beads (available from Perkin Elmer) were contained in 150 μl of experimental system. After incubating for 1.5 hours at room temperature in the dark, it was placed into an Envision Plate Reader (available from Perkin Elmer) under the programmed AlphaScreen procedure for readings.
AlphaScreen technology was used to test the ability of the compounds of the present invention to promote PYL receptor binding to PP2C protein phosphatase (HAB1).

cotton = assay: Leaf transpiration experiment, cotton; assay type: in vivo; details: 20 μM spray 25 days after sowing, two days after spraying; FIG. 6
Protocol: (§1) ABA synthesis mutant aba2-1 was used in Arabidopsis leaf transpiration experiment. […] Therefore, this mutant is used to exclude the effect of endogenous ABA on the transpiration experiment. The plants were sprayed with a solution containing 0.05% tween-20 and corresponding concentrations of (+)-ABA/0224/0304/0706/0715/0428 or 0.05% Tween-20 and 0.05% DMSO (control) after three weeks of continuous watering with an amount of 1.2 ml/pot. Leaf transpiration experiments of soybeans were conducted at 26° C. with long-day lighting and soybeans were sprayed with a solution containing 0.1% tween-20 and 20 μM (+)-ABA/0224/0304 compound or 0.1% Tween-20 and 0.05% DMSO (control) 14 days after sowing with an amount of 4 ml/pot; the leaf transpiration experiments of cottons were sprayed with a solution containing 0.1% tween-20 and 20 μM (+)-ABA/0224 compound or 0.1% Tween-20 and 0.05% DMSO, respectively, 25 days after sowing with an amount of 4 ml/pot; the leaf transpiration experiments of wheats were sprayed with a solution containing 0.1% tween-20 and 100 μM (+)-ABA/0224 compound or 0.1% Tween-20 and 0.05% DMSO (control) 18 days after sowing with an amount of 6 ml/pot. […]
(§2) In this experiment, the temperature change of leaf surface was observed and recorded by an infrared camera, thus reflecting the strength of plant transpiration. […]

wheat [2] = assay: Leaf transpiration experiment, wheat; assay type: in vivo; details: 100 μM spray 18 days after sowing, one day after spraying; FIG. 16
Protocol: as §1, §2

wheat [3] = assay: Soil drought experiment, wheat; assay type: in vivo; details: 100 μM sprayed once every 3 days; 6 days of drought; FIG. 17
Protocol: Soybean, cotton and wheat for leaf transpiration experiments were used simultaneously for soil drought experiments, each pot was filled with the same weight of soil to reduce experimental error. All the soybean plants were subjected to a long-day culture at 26° C. 14 days after sowing, watering was stopped and the plants with the consistent growth condition were selected for drought treatment. At the start of the drought, a solution containing 0.1% Tween-20 and 20 μM (+)-ABA/0224/0304 or 0.1% Tween-20 and 0.05% DMSO (control) was sprayed onto the leaf surface once with a spray amount of 4 ml solution/pot. Meanwhile, the position of the pot was changed and re-watered 6 days after the drought, and the photos were taken 1 day after re-watering. The drought experiment of cotton was similar to that of soybeans, watering was stopped 25 days after sowing, the plants with the consistent growth condition were selected for drought treatment. At the start of the drought, a solution containing 0.1% Tween-20 and 20 μM (+)-ABA/0224 or 0.1% Tween-20 and 0.05% DMSO (control) was sprayed onto the leaf surface once with a spray amount of 4 ml solution/pot, and then sprayed once every 3 days. Meanwhile, the position of the pot was changed and re-watered 6 days after the drought, and the photos were taken before re-watering and 1 day after re-watering. […]

[4] = test system: soybean GmPYL6 + Arabidopsis AtHAB1; assay: AlphaScreen assay: promotion of the interaction of soybean GmPYL6 with Arabidopsis HAB1; assay type: binding, soybean (GmPYL6); Arabidopsis thaliana (HAB1); details: FIG. 13a; 6×His-SUMO-tagged soybean GmPYL6, Biotin-tagged Arabidopsis HAB1 (aa 172-511), 100 nM each; pH 7.4; 1.5 h room temperature

| SMILES | EC50 value with PYR1 receptor-HAB1 complex as fraction of that of ABA [1] | leaf temperature versus DMSO control (leaf transpiration) (cotton) | leaf temperature versus DMSO control (leaf transpiration) (wheat [2]) | growth after drought (wheat [3]) | EC50 [4] [nM] |
| --- | --- | --- | --- | --- | --- |
| CCCN1C(=O)OC(C)c2cc(NS(=O)(=O)Cc3c(F)c(F)c(C)c(F)c3F)ccc21 (stereo not shown) [Compound 0224] | 1/40 | significantly reduce the transpiration rate of the cotton leaf; also recorded: still significant higher than that of plants in DMSO-sprayed control group | significantly reduce the transpiration rate of the wheat leaf; also recorded: still significant higher than that of plants in DMSO-sprayed control group | significantly better than that in the control group (DMSO); also recorded: remained upright |  |
| CC1=CC(=O)CC(C)(C)[C@@]1(O)/C=C/C(C)=C\C(=O)O [ABA, Abscisic Acid, reference compound] |  | had no difference from that in the control group | still significant higher than that of plants in DMSO-sprayed control group | significantly better than that in the control group (DMSO); also recorded: remained upright | 88.4 |
| CCCN1C(=O)OC(C)(C)c2cc(NS(=O)(=O)Cc3c(F)c(F)c(C)c(F)c3F)ccc21 [Compound 0304] | 1/24 |  |  |  |  |
| CCCN1C(=O)OCc2cc(NS(=O)(=O)Cc3c(F)c(F)c(C)c(F)c3F)ccc21 [Compound 0428] |  |  |  |  | 6.28 |
